Laboratory results published in paper PMC12040169 (PLOS Biology, 2025).

Assay: in vitro
Settings: human, hela cells, % viability

Going from `NC(=O)COc1cccc(/C=C2/SC(Nc3cccc(C(=O)O)c3)=NC2=O)c1` [CBK265027] to `CCOC(=O)c1cnc2ccc(Br)cc2c1NCc1cccnc1` [CBK265030], the viability at 28.5 h, 10 µM falls from 104% to 83.5%.

Compared with `COc1ccccc1N1CCN(C(=O)NCCC(C)C)CC1` [CBK155611], `Cc1ccc(Cl)c(OC(C)C(=O)N2CCN(c3ccccn3)CC2)c1` (stereo not shown) [CBK304650] is lower in viability at 28.5 h, 10 µM: 94.5% for the first, 90.4% for the second.

Compared with `Cc1c(NC(=O)CCCC(=O)O)cccc1C(=O)O` [CBK265525], `O=C(CCSc1ccccc1)Nc1ccccc1C(=O)O` [CBK264119] is lower in viability at 28.5 h, 10 µM: 95% for the first, 92.1% for the second.

Compared with `Cc1noc2nc(C3CCN(C(=O)C4CC4C)CC3)cc(C(F)F)c12` (stereo not shown) [CBK285307], `CSc1nnc(CC2CCN(C(=O)c3cc(C)on3)CC2)n1C` [CBK307481] is higher in viability at 28.5 h, 10 µM: 93% for the first, 108% for the second.

First: COc1ccc(-c2noc([C@@H]3C[C@H](NS(=O)(=O)Cc4ccccc4)CN3C)n2)cc1 [CBK288863]
Second: COc1ccc(N(CC(=O)O)S(=O)(=O)c2ccccc2)c(OC)c1 [CBK262415]
The viability at 28.5 h, 10 µM of the first is lower: 93.2% for the first, 108% for the second.

Going from `Cc1nnnn1C(Cc1cccc(F)c1)C(=O)N1CC(C)CC(C)C1` (stereo not shown) [CBK298262] to `CC(C)C(=O)N1C[C@H]2CCc3nnc(-c4ccccc4)n3[C@H]2C1` [CBK283438], the viability at 28.5 h, 10 µM falls from 96.3% to 88%.

Going from `O=S(=O)(Nc1ccc2[nH]ccc2c1)c1cccnc1` [CBK156811] to `O=C(Nc1cccnc1)c1cc(S(=O)(=O)N2CCOCC2)ccc1Br` [CBK270101], the viability at 28.5 h, 10 µM rises from 71% to 92.4%.

Compared with `CC(C)Nc1cccnc1N1CCN(C(=O)c2cc3cc(NC(=O)N4CCOCC4)ccc3[nH]2)CC1` [CBK007872], `COc1ccc2cc(C(=O)N3CCC(c4ccncc4)CC3)[nH]c2c1` [CBK283799] is lower in viability at 28.5 h, 10 µM: 96.2% for the first, 86.4% for the second.

First: O=C(NC1CC(=O)N(CCc2ccc(F)cc2)C1)c1cn2ccsc2n1 (stereo not shown) [CBK307263]
Second: O=C(NCCOc1ccccc1F)C1CC(=O)N(Cc2ccccn2)C1 (stereo not shown) [CBK304632]
The viability at 28.5 h, 10 µM of the first is lower: 100% for the first, 104% for the second.

First: OC(CNCC1COc2ccccc2O1)C(F)(F)F (stereo not shown) [CBK074834]
Second: FC(F)(F)c1ccc(OCCNc2ccccc2)nc1 [CBK115828]
The viability at 28.5 h, 10 µM of the first is higher: 102% for the first, 101% for the second.

Compared with `O=C(Nc1cc(Cl)cc(Cl)c1)c1ccc([N+](=O)[O-])s1` [CBK066840], `O=C(Nc1ccno1)Nc1ccc(Cl)cc1Cl` [CBK057809] is lower in viability at 28.5 h, 10 µM: 95.2% for the first, 94.6% for the second.

Compared with `Cc1cccc(-n2ncc3c2ncn2c(COc4ccccc4C)nnc32)c1` [CBK265567], `COc1ccc(S(=O)(=O)NCCO)cc1-c1nnc2c3ccccc3c(C)nn12` [CBK266933] is higher in viability at 28.5 h, 10 µM: 86.2% for the first, 91.9% for the second.

Compared with `Cn1cc(C2CCCCCN2C(=O)c2cc(C3CC3)on2)cn1` (stereo not shown) [CBK285301], `Cc1ccc(C2CCCN2C(=O)c2ccc(=O)n(CC(=O)NC3CCCCC3)c2)cc1C` (stereo not shown) [CBK285982] is lower in viability at 28.5 h, 10 µM: 104% for the first, 97.4% for the second.

First: COc1cc(C)nc(OCCNS(=O)(=O)c2cc(C)ccc2C)n1 [CBK058870]
Second: C/C=C/c1ccc(OCCCSc2nc(C)cc(O)n2)c(OC)c1 [CBK267413]
The viability at 28.5 h, 10 µM of the first is lower: 91.9% for the first, 93.5% for the second.

First: Cc1cc(N2CCN(c3ccc(O)cc3)CC2)n2nc(-c3nccn3C)cc2n1 [CBK286188]
Second: Cc1cc(N2C(=O)CC(N3CCN(c4ccc(C(=O)c5cccs5)cc4)CC3)C2=O)no1 (stereo not shown) [CBK268701]
The viability at 28.5 h, 10 µM of the first is higher: 91.2% for the first, 84.4% for the second.

First: CC1Cc2cc(-c3cncn3CC(=O)NC(C)(C)C)ccc2N1C (stereo not shown) [CBK281699]
Second: COc1cc(CNCc2cnn(C)c2)c(O)c(C(C)(C)C)c1 [CBK304721]
The viability at 28.5 h, 10 µM of the first is lower: 77.3% for the first, 85.8% for the second.

First: CC(=O)NCCSc1nccnc1NC(C)C [CBK105289]
Second: CC(C)Nc1cc(SC2CCCCC2)ncn1 [CBK107163]
The viability at 28.5 h, 10 µM of the first is higher: 92.8% for the first, 92.4% for the second.

First: COc1ccc(C2CCN(CC(=O)NCc3ccco3)CC2)cc1 [CBK283562]
Second: COc1ccc(CNC(=O)c2cc(S(=O)(=O)N3CCCCC3)cs2)cc1 [CBK307590]
The viability at 28.5 h, 10 µM of the first is higher: 103% for the first, 85.9% for the second.

Compared with `COc1ccc(Cl)cc1NC(=O)CN(C1CCCCC1)S(C)(=O)=O` [CBK266720], `COc1ccc(C(C)NC(=O)C2CCCCC2C(=O)O)cc1OC` (stereo not shown) [CBK270309] is lower in viability at 28.5 h, 10 µM: 105% for the first, 91.1% for the second.

Compared with `Cc1ccc2c(c1)cc(C(=O)N1CCOC(C(=O)N3CCCCCC3)C1)n2C` (stereo not shown) [CBK286032], `CC(C)[C@H]1CN(Cc2ccco2)CCN1C(=O)N1CCCCC1` [CBK284272] is lower in viability at 28.5 h, 10 µM: 109% for the first, 87.6% for the second.

Compared with `O=C(CSCc1cccc2ccccc12)Nc1c[nH]c(=O)[nH]c1=O` [CBK268500], `O=C(Cn1cnc2ccccc2c1=O)Nc1cccc(-c2cnc3ccccc3n2)c1` [CBK270020] is lower in viability at 28.5 h, 10 µM: 103% for the first, 83.7% for the second.

Compared with `COc1ccc(-c2cc(NC3CCCCC3)ncn2)cc1` [CBK090904], `c1ccc2cc(-c3cc(Nc4ccc(N5CCOCC5)cc4)ncn3)ccc2c1` [CBK090929] is lower in viability at 28.5 h, 10 µM: 96.8% for the first, 94.2% for the second.

Going from `C/C(=N\NC(=O)C1CC1)c1ccc(C)cc1` [CBK016047] to `CCC1CCCCN1C(=O)c1cccc(C(=O)OC)c1` (stereo not shown) [CBK083195], the viability at 28.5 h, 10 µM rises from 90.7% to 109%.

First: CN(C)c1cccc(-c2nc(-c3ccc(C#N)cc3)cnc2N)c1 [CBK064049]
Second: Cc1ccc(S(=O)(=O)/N=C(/NCc2ccc(Cl)cc2)Nc2nc(C)cc(C)n2)cc1 [CBK263785]
The viability at 28.5 h, 10 µM of the first is lower: 91.5% for the first, 102% for the second.

First: Cc1nc(SCC(=O)N2CCC(C)CC2)c2c3c(sc2n1)CCC3 [CBK265944]
Second: NC(=O)c1c(NC(=O)CSc2nnc(-c3ccccc3)n2CC2CCCO2)sc2c1CCC2 (stereo not shown) [CBK084789]
The viability at 28.5 h, 10 µM of the first is lower: 86.1% for the first, 110% for the second.

First: O=C1COc2ccccc2C/C=C/CC2(CCN(C(=O)c3n[nH]c4ccccc34)CC2)CN1 [CBK292021]
Second: Cc1c(OCc2ccccc2)ccc2c1OC1(CCN(C(=O)c3ccsc3)CC1)CC2=O [CBK156445]
The viability at 28.5 h, 10 µM of the first is lower: 88.9% for the first, 109% for the second.

First: CC(=O)N1CCC2(CC1)CC(O)c1cc(C)c(C)cc1O2 (stereo not shown) [CBK282826]
Second: COc1ccc([C@@]23CC[C@@H](NC(=O)Nc4ccc(F)c(F)c4)C[C@@H]2N(C)CC3)cc1O [CBK051630]
The viability at 28.5 h, 10 µM of the first is higher: 107% for the first, 88.3% for the second.

First: COC(=O)COc1ccc(S(=O)(=O)NCc2ccc3c(c2)OCO3)cc1C [CBK267172]
Second: CC(C(=O)Nc1ccc2c(c1)OCO2)N(c1ccc(Cl)cc1)S(C)(=O)=O (stereo not shown) [CBK268595]
The viability at 28.5 h, 10 µM of the first is higher: 90.3% for the first, 89.5% for the second.

Compared with `COc1nc(N(C)C)nc(N2CC(=O)N(c3ccccc3)C2=N)n1` [CBK269079], `COCC1(C(=O)N2CC(=O)N(c3ccccc3C#N)CC2C)CCC1` (stereo not shown) [CBK307159] is higher in viability at 28.5 h, 10 µM: 87.6% for the first, 89% for the second.

Compared with `COc1ccc(C(=O)N(C)Cc2cnn(C)c2)cc1Br` [CBK305149], `COc1ccc(-n2ncc(-c3ccc(Br)cc3F)n2)cc1OC` [CBK112915] is higher in viability at 28.5 h, 10 µM: 84.8% for the first, 96.9% for the second.

Going from `O=C(O)c1ccc2c(c1)C(=O)N(c1ccc3c(c1)Cc1cc(N4C(=O)c5ccc(C(=O)O)cc5C4=O)ccc1-3)C2=O` [CBK261333] to `O=C1CC(N2CCN(CCc3ccncc3)CC2)C(=O)N1c1ccc(Cl)cc1` (stereo not shown) [CBK270078], the viability at 28.5 h, 10 µM falls from 90.5% to 85.6%.

Going from `CCOC(=O)C1CCCN(S(=O)(=O)c2sc3ccc(Cl)cc3c2C)C1` (stereo not shown) [CBK154797] to `Cc1cc(C)n(CCC(=O)N2CCCCC2C(=O)O)n1` (stereo not shown) [CBK304678], the viability at 28.5 h, 10 µM rises from 97.2% to 103%.

First: Cc1cc(NS(=O)(=O)N2CCOCC2)no1 [CBK269894]
Second: CC(C)n1nccc1C(=O)NCC(c1ccc(F)cc1)N1CCCC1 (stereo not shown) [CBK283025]
The viability at 28.5 h, 10 µM of the first is higher: 89.9% for the first, 87.3% for the second.

Compared with `Cc1[nH]c2ccccc2c1/C=C1/C(=N)N2C(SCc3ccccc3)=NSC2=NC1=O` [CBK265291], `O=C(Cn1c2ccccc2c(=O)c2ccccc21)Nc1ccc(-n2cncn2)nc1` [CBK295350] is higher in viability at 28.5 h, 10 µM: 90% for the first, 93.1% for the second.

Going from `CS(=O)(=O)c1ccc(CNC(=O)C2(c3ccccc3)CCCC2)cc1` [CBK161524] to `OC1(c2ccccc2)CCN(Cc2cncn2Cc2ccccc2)C1` (stereo not shown) [CBK282809], the viability at 28.5 h, 10 µM rises from 96.3% to 110%.

First: CN(C)CC1CN(c2nc(-c3ccncc3)nc3c2CCC3)CCO1 (stereo not shown) [CBK305824]
Second: CC(C)CN1C(=O)COC[C@@H]1[C@H](O)c1ccc(NC(=O)c2cccnc2)cc1 [CBK289692]
The viability at 28.5 h, 10 µM of the first is lower: 83% for the first, 105% for the second.

Going from `CSCC(O)Cn1nc(O)cc(C)c1=O` (stereo not shown) [CBK006293] to `Cc1cc(Cl)ccc1OCCCc1nnc(S)n1C` [CBK288396], the viability at 28.5 h, 10 µM falls from 105% to 85.1%.

Compared with `COc1ccc([N+](=O)[O-])cc1NC(=O)N[C@@H]1CC[C@@]2(c3ccc(OC)c(OC)c3)CCN(C)[C@H]2C1` [CBK036449T], `COc1ccc(CCNC(=O)C(=O)Nc2ccc(C)c(C)c2)cc1` [CBK263222] is lower in viability at 28.5 h, 10 µM: 111% for the first, 91.1% for the second.

Compared with `NCCN(Cc1cccc(Cl)c1)C(=O)NC(c1ccccc1)c1ccccc1` [CBK046203C], `COc1cccc(CN(Cc2ccco2)Cc2cncn2C)c1` [CBK282497] is higher in viability at 28.5 h, 10 µM: 90.8% for the first, 102% for the second.

Compared with `COc1ccccc1/C=C/C1=NN(c2ccc(F)cc2)C(c2ccccc2OC)C1` (stereo not shown) [CBK262303], `CCOC(=O)N1CCN(Cc2nc3c(c(=O)n(C)c(=O)n3C)n2Cc2ccccc2C)CC1` [CBK269325] is higher in viability at 28.5 h, 10 µM: 81.1% for the first, 91.8% for the second.

First: O/N=C1\CSCc2ncccc21 [CBK007234]
Second: Cc1nn(C(C)C)c(C)c1CN(CCCN(C)C)Cc1ccco1 [CBK282978]
The viability at 28.5 h, 10 µM of the first is higher: 90.1% for the first, 86.8% for the second.

Same assay, conditions: human, hela cells, % viability, bulk resorufin, single well

Going from `O=C1NC(=S)NC(=O)C1=Cc1ccc(-c2ccc([N+](=O)[O-])cc2Cl)o1` [CBK261820] to `COc1cc(C=C2C(=O)NC(=S)NC2=O)cc(Br)c1OCc1c(C)no[n+]1[O-]` [CBK263475], the viability at 28.5 h, 10 µM rises from 89.2% to 98.9%.

Compared with `O=C(Cn1cc(C(=O)c2ccco2)c2ccccc21)NCCc1c[nH]c2ccccc12` [CBK267509], `O=C1NC(=O)N(c2ccc(O)cc2)C(=O)/C1=C/c1ccc(OCc2ccc(Cl)cc2Cl)cc1` [CBK263842] is lower in viability at 28.5 h, 10 µM: 97.9% for the first, 92.1% for the second.

Compared with `Fc1ccc(-c2ccc3c(c2)COC2(CCNCC2)O3)cc1Cl` [CBK060960], `CCOC(=O)c1ccc(NC(=O)c2c(O)[nH]c(=O)[nH]c2=O)cc1` [CBK115565] is lower in viability at 28.5 h, 10 µM: 89.8% for the first, 84.7% for the second.
